Assay results: US8962683B2, “Medium chain fatty acids applicable as anti-microbial agents” (Nutrition Sciences NV, priority 2004, dated 2015)

What was measured:
E. coli K88 = test: Antimicrobial effect of C6, C8 and C10 on E. coli K88 in acidified feed suspension (gastric simulation); format: cell-based; conditions: 20% feed suspension pH 4.0
Protocol: In this example the anti-microbial activity of C6 and/or C8 and/or C10 MCFA against E. coli K88 was evaluated. The preparation of the test solution was as follows. to 1 kg feed (composition Table 6) an exactly determined quantity of E. coli K 88 was added. Subsequently, a suspension of 20% feed and 80% physiologic solution (0,85% saline) was created. To simulate the 20%-suspension in a gastric environment, a pH of 4.0 with 0.1 N HCl was established.
The acidified suspension was distributed in samples of 100 ml. Test substances were added in different concentrations as mentioned in table 7.
A microbial count at t=0 was executed. Samples were incubated during 3 h at 37° C. Samples were removed after 3 h and pH and microbial count were determined. The E. coli strains were counted on a Coli ID medium (Bio Mérieux, 42017).
The planned observations were: • a. Microbial count of control sample (blank) on t=0 • b. Microbial count of control sample (blank) and treatments on t=3 h. Table 8 depicts the calculated results proving the effectiveness of the anti-microbial effectiveness in the stomach of the different MCFA

[1] = system: Campylobacter jejuni VC 5, VC 6 and VC 7 strains; test: Effect of MCFA on growth and survival of Campylobacter sp. isolated from poultry caecum; format: cell-based; conditions: medium pH 5.0; for antimicrobial activity against Campylobacter strains (CFU/ml, FIGS. 1-9): micro-aerobic, tested concentrations, 0 and 180 minutes; for relative antimicrobial effect on the tested Campylobacter strains: comparison between MCFA
Protocol: In this example, the MIC values of different MCFA against Campylobacter sp. isolated from poultry caecum were determined.
Three tenfold dilutions of a 10% suspension of three types of MCFA's (C6, C8 and C10) were prepared in distilled water. To obtain the desired concentrations, 1.5, 0.75 and 0.36 ml of these dilutions were pipetted in petri dishes and carefully mixed with 15 ml molten growth medium. A suitable fermentation medium was used with a pH of 5.0.
Isolated Campylobacter strains were grown in suitable fermentation medium and incubated at 37° C. under micro-aerobic conditions by evacuating 80% of the normal atmosphere and introducing a gas mixture of 8% CO2, 8% H2 and 84% N2 into the jar. Inocula were prepared by diluting the cultures in buffered saline to a density of 0.5 on the McFarland turbidity scale and diluted 40-fold before inoculating. Plates were seeded with inoculum. Control plates of media without the product were inoculated at the end of the procedure. All plates were incubated at 37° C. under appropriate atmosphere. Readings were performed after 48 h. Campylobacter was counted after incubation.
These figures represent the number of colony forming units (CFU)/ml of Campylobacter jejuni VC 5 strain (FIGS. 1, 4, 7), Campylobacter jejuni VC 6 strain (FIGS. 2, 5, 8), and Campylobacter jejuni VC 7 strain (FIGS. 3, 6, 9) at various concentrations of MCFA and at two different time points (0 and 180 minutes).

[2] = 0.06% test substance, T = 3 h at 37° C.
[3] = 0.125% test substance, T = 3 h at 37° C.
[4] = 0.250% test substance, T = 3 h at 37° C.
[5] = 0.500% test substance, T = 3 h at 37° C.

Row | Structure (SMILES) | Microbial count (E. coli K88; 0.06% test substance, T = 0 h) | Microbial count (E. coli K88; [2]) | Microbial count (E. coli K88; 0.125% test substance, T = 0 h) | Microbial count (E. coli K88; [3]) | Microbial count (E. coli K88; 0.250% test substance, T = 0 h) | Microbial count (E. coli K88; [4]) | Microbial count (E. coli K88; 0.500% test substance, T = 0 h) | Microbial count (E. coli K88; [5]) | antimicrobial activity against Campylobacter strains (CFU/ml, FIGS. 1-9) [1] | relative antimicrobial effect on the tested Campylobacter strains [1]
1 | CCCCCC(=O)O [C6, caproic acid] | 5.708 Log (CFU/g) | 4.160 Log (CFU/g) | 5.700 Log (CFU/g) | Total inhibition | 4.920 Log (CFU/g) | Total inhibition | Total inhibition | Total inhibition | show antimicrobial activities | 
2 | CCCCCCCC(=O)O [C8, caprylic acid] | 5.649 Log (CFU/g) | Total inhibition | 5.415 Log (CFU/g) | Total inhibition | Total inhibition | Total inhibition | Total inhibition | Total inhibition | show antimicrobial activities | stronger antimicrobial effect compared to C6
3 | CCCCCCCCCC(=O)O [C10, capric acid] | 6.964 Log (CFU/g) | 6.854 Log (CFU/g) | 6.927 Log (CFU/g) | 6.707 Log (CFU/g) | 6.966 Log (CFU/g) | 4.708 Log (CFU/g) | 6.816 Log (CFU/g) | Total inhibition | show antimicrobial activities | stronger antimicrobial effect compared to C8
